Numbered stars: 1 amine (or outer) side, 2 acyl side, 3 side chain; on linkers, the order of the positions; unused ones are H or OH. Bridge positions count the residues as written; N and C are the ends. Square brackets hold non-standard residues; d marks the D form. Peptide text beside a SMILES is read from it. * marks the point of attachment. C20 diacid = O=C(O)CCCCCCCCCCCCCCCCCCC(=O)*; Pro(4R-NH2) = N[C@H]1CN[C@H](C(=O)O)C1; γGlu = O=C(O)[C@H](CCC(=O)[*:2])N[*:1]; NMeI = CC[C@H](C)[C@H](NC)C(=O)O; Sar = CNCC(=O)O
Tests used:
[1] = Solubility assessment (turbidity absorbance at 325 nm); type: physicochemical; conditions: stock 2 mg/ml diluted 1:1, ambient temperature (typically 25°C), n=1; for Solubility, Acetate buffer pH 4: 100 mM acetate buffer pH 4.0; for Solubility, Acetate buffer pH 5: 100 mM acetate buffer pH 5.0; for Solubility, Histidine buffer pH 6: 100 mM histidine buffer pH 6.0; for Solubility, Histidine buffer pH 7: 100 mM histidine buffer pH 7.0; for Solubility, Phosphate buffer pH 6: 100 mM phosphate buffer pH 6.0; for Solubility, Phosphate buffer pH 7: 100 mM phosphate buffer pH 7.0; for Solubility, Phosphate buffer pH 7.5: 100 mM phosphate buffer pH7.5
In short: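 Peptide stock (2 mg/ml, water pH 2.5) diluted 1:1 into 100 mM acetate (pH 4.0, 5.0), histidine (pH 6.0, 7.0) or phosphate (pH 6.0–7.5) buffer; absorbance at 325 nm read at about 25°C, n=1. A325 ≤ 0.02 taken as solubility ≥ 1 mg/ml.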

[2] = system: Sprague Dawley (SD) rats; test: Acute food intake and body weight in normal Sprague Dawley rats; type: in vivo; conditions: vehicle-corrected, dose 30 nmol/kg sc, once; for Body weight loss (%) after 96 hours: mean ± SEM, n = 8
In short: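 Normal male-unspecified SD rats, n = 8 per group, given a single s.c. peptide dose of 30 nmol/kg just before dark phase, with vehicle and positive control groups. Food intake recorded at 0, 4, 7, 10, 24, 48, 72 and 96 h; body weight daily; means ± SEM.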

Row | SMILES | Solubility, Acetate buffer pH 4 [1] | Solubility, Acetate buffer pH 5 [1] | Solubility, Histidine buffer pH 6 [1] | Solubility, Histidine buffer pH 7 [1] | Solubility, Phosphate buffer pH 6 [1] | Solubility, Phosphate buffer pH 7 [1] | Solubility, Phosphate buffer pH 7.5 [1] | Food intake inhibition (%) after 48 hours [2] [%] | Body weight loss (%) after 96 hours [2] [%]
1 | CC[C@H](C)[C@@H](C(=O)N[C@@H](CC(C)C)C(=O)N[C@@H](CO)C(=O)N[C@@H](CO)C(=O)N[C@H](C(=O)N[C@@H](CC(N)=O)C(=O)N[C@H](C(=O)NCC(=O)N[C@@H](CO)C(=O)N[C@@H](CC(N)=O)C(=O)N[C@H](C(=O)N1C[C@H](N)C[C@H]1C(N)=O)[C@@H](C)O)C(C)C)[C@@H](C)O)N(C)C(=O)[C@H](C)NC(=O)CN(C)C(=O)[C@H](Cc1ccccc1)NC(=O)[C@H](CC(N)=O)NC(=O)[C@H](CC(N)=O)NC(=O)[C@H](CO)NC(=O)[C@H](CO)NC(=O)[C@H](CCCNC(=N)N)NC(=O)[C@H](Cc1c[nH]cn1)NC(=O)[C@H](CC(C)C)NC(=O)[C@H](Cc1ccccc1)NC(=O)[C@H](CCC(=O)O)NC(=O)[C@H](C)NC(=O)[C@H](CC(C)C)NC(=O)[C@H](CCCNC(=N)N)NC(=O)[C@H](CCC(N)=O)NC(=O)[C@@H](NC(=O)[C@H](C)NC(=O)[C@@H]1CSSC[C@H](NC(=O)[C@H](CCCNC(=N)N)NC(=O)CC[C@H](NC(=O)CCCCCCCCCCCCCCCCCCC(=O)O)C(=O)O)C(=O)N[C@@H](CC(N)=O)C(=O)N[C@@H]([C@@H](C)O)C(=O)N[C@@H](C)C(=O)N[C@@H]([C@@H](C)O)C(=O)N1)[C@@H](C)O [Compound 110, [19CD]-isoGlu-RC()NTATC()ATQRLAEFLHRSSNNF-Gly(Me)-A-Ile(Me)-LSSTNVGSNT-Apr-NH2] ({C20 diacid-γGlu}-RCNTATCATQRLAEFLHRSSNNF[Sar]A[NMeI]LSSTNVGSNT[Pro(4R-NH2)]-NH2; disulfide 2-7) | SS (SS indicates solubility ≥ 1mg/ml) | SS (SS indicates solubility ≥ 1mg/ml) | SS (SS indicates solubility ≥ 1mg/ml) | SS (SS indicates solubility ≥ 1mg/ml) | II (II indicates solubility ≤ 1 mg/ml) | SS (SS indicates solubility ≥ 1mg/ml) | SS (SS indicates solubility ≥ 1mg/ml) | 98 | 11 ± 1.1
2 | CC[C@H](C)[C@@H](C(=O)N[C@@H](CC(C)C)C(=O)N[C@@H](CO)C(=O)N[C@@H](CO)C(=O)N[C@H](C(=O)N[C@@H](CCC(=O)O)C(=O)N[C@H](C(=O)NCC(=O)N[C@@H](CO)C(=O)N[C@@H](CCC(=O)O)C(=O)N[C@H](C(=O)N1CCC[C@H]1C(N)=O)[C@@H](C)O)C(C)C)[C@@H](C)O)N(C)C(=O)[C@H](C)NC(=O)CN(C)C(=O)[C@H](Cc1ccccc1)NC(=O)[C@H](CO)NC(=O)[C@H](CO)NC(=O)[C@H](CCCNC(=N)N)NC(=O)[C@H](Cc1c[nH]cn1)NC(=O)[C@H](CC(C)C)NC(=O)[C@H](Cc1ccccc1)NC(=O)[C@H](CCC(=O)O)NC(=O)[C@H](C)NC(=O)[C@H](CC(C)C)NC(=O)[C@H](CCCNC(=N)N)NC(=O)[C@H](CCC(=O)O)NC(=O)[C@@H](NC(=O)[C@H](C)NC(=O)[C@@H]1CSSC[C@H](NC(=O)[C@H](CCCNC(=N)N)NC(=O)CC[C@H](NC(=O)CCCCCCCCCCCCCCCCCCC(=O)O)C(=O)O)C(=O)NCC(=O)N[C@@H]([C@@H](C)O)C(=O)N[C@@H](C)C(=O)N[C@@H]([C@@H](C)O)C(=O)N1)[C@@H](C)O [Compound 162, [19CD]-isoGlu-RC()GTATC()ATERLAEFLHRSSF-Gly(Me)-A-Ile(Me)-LSSTEVGSETP-NH2] ({C20 diacid-γGlu}-RCGTATCATERLAEFLHRSSF[Sar]A[NMeI]LSSTEVGSETP-NH2; disulfide 2-7) | SS (SS indicates solubility ≥ 1mg/ml) | SS (SS indicates solubility ≥ 1mg/ml) | SS (SS indicates solubility ≥ 1mg/ml) | SS (SS indicates solubility ≥ 1mg/ml) | SS (SS indicates solubility ≥ 1mg/ml) | SS (SS indicates solubility ≥ 1mg/ml) | SS (SS indicates solubility ≥ 1mg/ml) | 99 | 13 ± 2.2
